The test has as its target T1, 14-3-3γ/ERRγ complex (Homo sapiens, UniProt P61981+P62508).
T1 construct: made in house; host or cells: E. coli NiCo21 (DE3)
Kind of test: FA compound titration in HEK293 cell lysate. Type of test: binding. The note with it: 2 mg mL^–1 HEK293 cell lysate, 5 μM 14-3-3γ, 100 nM ERRγ peptide; read-out: half-maximal complex concentration (CC50). As for the experimental part: The cell represents a complex biochemical environment composed of a high reducing potential, a pool of potential nucleophiles, and competing 14-3-3 interaction partners. To investigate molecular lock-induced complex formation in a reactive environment, we first investigated binary 14-3-3/ERRγ formation in the HEK293 cell lysate. Here, the HEK293 cell lysate was titrated to the preformed 14-3-3γ/ERRγ complex in an FA assay and incubated overnight (Figure S25a–c). […] Next, we investigated molecular lock 5-induced complex formation (Figures S25 and S26). […] Moreover, early observed cell lysate-induced abolishment of the 14-3-3γ/ERRγ complex formation was almost completely recovered upon addition of 5, to similar complex concentrations to that in the absence of the lysate. […]
Figure S25. […] (d -e) Fluorescence anisotropy studies of compound 5 (right) titrations or DMSO as negative control (left) to a preformed complex of 14 -3-3γ (5 µM, 0.16 mg/mL) and fluorescein labelled ERRγ peptide (100 nM) at various concentrations HEK293 cell lysate (up to 2 mg/mL). […]
Figure S26. […] Fluorescence anisotropy studies of compound 5 titrations (or DMSO as negative control) to a preformed complex of 14-3-3γ (5 µM) and fluorescein labelled ERRγ peptide (100 nM). Assay is performed in presence of various concentrations HEK293 cell lysate (up to 2 mg/mL) and is measured over time (every hour for 12 hours). […]

The structures appear in SMILES notation.

T1 sequence (P61981 whole entry, other chains not shown): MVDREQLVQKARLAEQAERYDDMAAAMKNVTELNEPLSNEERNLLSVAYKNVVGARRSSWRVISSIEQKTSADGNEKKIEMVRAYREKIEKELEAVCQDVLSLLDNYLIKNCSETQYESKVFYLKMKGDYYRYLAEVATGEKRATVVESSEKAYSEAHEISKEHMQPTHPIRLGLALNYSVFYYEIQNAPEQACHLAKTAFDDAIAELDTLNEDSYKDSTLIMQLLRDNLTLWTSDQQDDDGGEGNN

For `CN(C)CCSSCCN(C)C(=O)c1ccc(C=O)c(F)c1` [compound 5], the CC50 was determined as 240 µM.

Values taken from article PMC10064330, “Reversible Dual-Covalent Molecular Locking of the 14-3-3/ERRγ Protein–Protein Interaction as a Molecular Glue Drug Discovery Approach” (Journal of the American Chemical Society, 2023).
